US20210353648A1, “GRAPIPRANT UNIT DOSAGE FORMS” (Arrys Therapeutics, Inc., priority 2018, published 2021)

How the values were obtained:
[1] = Phase 1 multiple ascending dose study of grapiprant tablets: urine pharmacokinetics; format: in vivo, human; settings: for CLR/Fu: mean; for AE / AE/Dose: urine; for AE / AE/Dose / CL renal: mean (SD); for CL renal: human, urine and serum
Procedure: Urine pharmacokinetic parameters can be used to assess the amount of parent drug excreted unchanged in the urine. The urine pharmacokinetic parameters can be calculated under the assumption that the amount of grapiprant excreted unchanged in the urine over the dosing interval was at steady state on the last day of dosing for the 14 day and 17 day oral administration described herein. As used herein, the term “AE” refers to the amount of parent drug excreted from 0-12 hours post dose on day 14 or day 17, calculated by (Urine Grapiprant Concentration×Urine Volume). As used herein, the term “AE/Dose” refers to percent of Dose renally excreted unchanged on day 14 or day 17, calculated by (AE/Dose)×100. As used herein, the term “CLR” refers to renal clearance on day 14 or day 17, calculated by (AE/AUCτ). As used herein, the term “CLR/Fu” refers to renal clearance of unbound drug, calculated by (CLR/Fu), where the fraction of drug in the serum not bound to proteins (Fu) is determined from in vitro human serum protein binding data.
Serial urine samples for PK evaluations of grapiprant were collected on Day 14 for up to 48 hours postdose (Cohorts 1-3) or on Day 17 for up to 24 hours postdose (Cohorts 5 and 6).
Grapiprant was extracted from the urine by protein precipitation, and then analyzed by a validated LC/MS/MS method. The dynamic range of the assay was 1.00 to 600 μg/mL. The following parameters were calculated under the assumption that the amount of grapiprant excreted unchanged in the urine over the dosing interval was at steady state on the 14th day of dosing: amount of parent drug excreted (AE), percent of dose renally excreted unchanged (AE/dose), renal clearance (CLR), and renal clearance of unbound drug (CLR/Fu).

[2] = Phase 1 single ascending dose study of grapiprant OPC: safety and tolerability; format: in vivo
Procedure: Eligible subjects were to be enrolled into 8 sequential cohorts, corresponding to the planned dose levels of 1 mg, 3 mg, 10 mg, 30 mg, 100 mg, 300 mg, 600 mg, and 1000 mg. […] After determining a maximum tolerated dose (MTD), or after completing the highest dose cohort if a MTD was not determined, Cohort 11 would be enrolled to increase the number of subjects evaluated at the MTD (or the highest dose).
In each dosing period, subjects were confined to the Clinical Research Unit (CRU) for approximately 60 hours (from approximately 36 hours predose through 24 hours postdose), and were instructed to return to the study site at 48 hours postdose for collection of blood samples for safety and pharmacokinetic evaluations. Subjects had triplicate ECG measurements made at select time-points on Day 0 (to provide a time-matched baseline) and through 24 hours postdose. Continuous cardiac monitoring by telemetry was performed for 12 hours postdose (or up to 24 hours, if warranted, based on the pharmacokinetic data). Creatine phosphokinase (CPK; total CPK and CPK-MB isoenzyme) and troponin I levels were monitored predose and at 12 and 24 hours postdose. In each dosing period, blood samples were collected predose and at 0.5, 1, 1.5, 2, 2.5, 3, 4, 6, 8, 12, 16, 24, and 48 hours postdose for pharmacokinetic evaluation. Fecal occult blood was monitored predose and through 48 hours postdose. Urine was collected through 24 hours postdose for exploratory biotransformation analyses. Since grapiprant may be a substrate of efflux transporters, genotyping for P-gp, an efflux transporter, was also planned for this study.
Safety: All subjects were evaluated for safety. Subjects were queried regarding adverse events (AEs) at 24 hours prior to dosing, 0 hours predose (baseline), and 1, 2, 4, 8, and 12 hours postdose. A limited physical examination, clinical laboratory tests, and fecal occult blood test were performed 24 hours prior to dosing. Vital signs measurements and 12-lead ECGs were performed in triplicate (approximately 2 minutes apart) at specified intervals in the 24 hours before dosing, 0 hours (predose), and at 0.5, 1, 1.5, 2, 3, 4, 8, and 12 hours postdose. Continuous cardiac telemetry monitoring was started at 1 hour postdose and continued for 12 hours postdose Fecal occult blood was monitored for 48 hours postdose.

[3] = Phase 1 crossover food effect study of 375 mg grapiprant tablets: safety; format: in vivo, human; settings: for subjects with treatment-emergent adverse events / treatment-emergent adverse events: 12 subjects
Procedure: This study was a randomized, open-label, single dose, 2-period crossover design. Each subject participated in 2 study periods. In each study period, subjects received a dose of 375 mg administered as 3×125 mg tablets of grapiprant under fasted or fed conditions in a crossover manner according to a randomized dosing sequence. The fed condition consisted of a standardized high-fat meal. Following an initial screening period of no longer than 28 days, 12 eligible subjects were to be randomized to the 2 treatment sequences and 2 treatment period sessions as shown in Table 6-1.
All subjects were evaluated for safety, which was assessed by adverse events either spontaneously reported or elicited by non-leading questions from study staff, clinical observations, safety laboratory tests, vital signs, 12-lead ECGs, concomitant medication assessment, physical examination, and fecal occult blood tests.

[4] = 50 mg BID (n = 8), after 14 days of multiple oral dosing, healthy adults
[5] = 150 mg BID (n = 9), after 14 days of multiple oral dosing, healthy adults
[6] = 250 mg BID (Elderly) (n = 14), after 14 days of multiple oral dosing (Day 17)
[7] = 300 mg BID (n = 9), after 14 days of multiple oral dosing, healthy adults

Structure (SMILES): CCc1nc2c(C)nc(C)cc2n1-c1ccc(CCNC(=O)NS(=O)(=O)c2ccc(C)cc2)cc1 [Grapiprant, N-((4-(2-ethyl-4,6-dimethyl-1H-imidazo[4,5-c]pyridin-1-yl)phenethyl)carbamoyl)-4-methylbenzenesulfonamide]
- CLR/Fu [1, 4]: 6120 mL/min
- AE [1, 4]: 10.6 (3.18) mg
- AE/Dose [1, 4]: 21.2 (6.37) %
- CLR/Fu [1, 5]: 6000 mL/min
- AE [1, 5]: 33.3 (11.2) mg
- AE/Dose [1, 5]: 22.2 (7.48) %
- CLR/Fu [1, 6]: 2720 mL/min
- AE [1, 6]: 57.9 (18.7) mg
- AE/Dose [1, 6]: 23.2 (7.48) %
- CLR/Fu [1, 7]: 4840 mL/min
- AE [1, 7]: 82.4 (27.1) mg
- AE/Dose [1, 7]: 27.5 (9.05) %
- renal clearance corrected for protein binding compared with GFR ([1]; healthy and elderly subjects): much greater than the glomerular filtration rate
- CL renal [1, 4]: 56.3 mL/min
- CL renal [1, 5]: 55.2 mL/min
- CL renal [1, 6]: 25 mL/min
- CL renal [1, 7]: 44.5 mL/min
- subjects reporting abdominal pain ([2]; 30 mg): 1 subject
- SAEs ([2]; 1 subject at 600 mg (not related), 1 each at 1500 mg and 2000 mg): Three subjects experienced SAEs
- subjects reporting abdominal pain ([2]; 1500 mg): 2 subjects
- incidence of AEs ([2]; 1500 mg treatment group): 4 of 6 subjects
- subjects reporting abdominal pain ([2]; 2000 mg): 4 subjects
- incidence of AEs ([2]; 2000 mg treatment group): 5 of 6 subjects
- serum creatinine and BUN (COSTART term: acute renal failure) ([2]; 2 subjects, 1 each at 1500 mg and 2000 mg): mild, treatment-related elevations in serum creatinine and BUN
- subjects experiencing AEs ([2]; 26 of the 61 subjects treated, single doses 1 mg to 2000 mg): 43%
- deaths or discontinuations due to AEs ([2]; all dose levels): No deaths or discontinuations due to AEs
- fecal occult blood ([2]; all dose levels): No positive results for fecal occult blood tests
- vital signs measurements, cardiac telemetry, ECG parameters ([2]; all dose levels): No clinically important, study drug-related changes
- subjects with treatment-related abdominal pain ([2]; among the 12 subjects who received 1500 or 2000 mg): 6 subjects
- tolerability ([2]; single doses ranging from 1 mg to 1000 mg): generally well tolerated
- subjects with treatment-emergent adverse events ([3]; 375 mg tablet-fasted treatment): 5 subjects
- treatment-emergent adverse events ([3]; 375 mg tablet-fasted treatment): 7 events
- subjects with treatment-emergent adverse events ([3]; 375 mg tablet-fed treatment): 4 subjects
- treatment-emergent adverse events ([3]; 375 mg tablet-fed treatment): 5 events
- intensity of adverse events ([3]; 375 mg, after both treatments): mild in intensity
- QTc ([3]; 375 mg, fasted and fed): no subjects had maximum QTc increases from baseline of ≥30 msec
- clinical laboratory tests or vital sign measurements ([3]; 375 mg, fasted and fed): No subjects had clinically significant changes from baseline
- deaths, serious adverse events, withdrawals ([3]; 375 mg, fasted and fed): no deaths, serious adverse events, or withdrawals due to adverse events
- tolerability ([3]; 375-mg dose of tablets, fasted and fed conditions, healthy adults): well-tolerated
